Results reported in patent US20210052582A1, “METHODS OF USE AND PHARMACEUTICAL COMPOSITIONS OF A SELECTIVE SYK INHIBITOR” (Portola Pharmaceuticals, Inc., priority 2018, published 2021).
Structures can show the parent of a compound that is named as a salt. Blank lines part the entries; values can stand above or below the molecule they belong to.

Columns and labels:
[1] = Free base solubilization with solubilizers; format: physicochemical; conditions: aqueous solubilizer (excipient) mixture, aqueous with cosolvent or surfactant or cyclodextrin; combination of 3% Glycerin, 5% PEG 400, 5% PEG-35 castor oil, 15% polysorbate 60, 4% polysorbate 80, 2% PVP K29/32, 10% propylene glycol
Source text: The free base was not soluble with various solubilizers.

[2] = tested on: patients with acute or chronic allergic conjunctivitis; test: Clinical conjunctival allergen challenge (CAC) study; format: in vivo, human
Source text: In a study utilizing the clinical model of the conjunctival allergen challenge (CAC) qualifying patients with acute or chronic allergic conjunctivitis were randomized to receive one of the five interventions listed below, each was given six doses at 1 drop per dose. The CAC model is a standardized clinical methodology for evaluation of novel drugs for allergy and anti-inflammatory activity, accepted by the FDA for clinical development of novel therapeutics, and has been used for development of 19 drugs currently on the market. In the CAC model, doses of allergen are administered in a controlled fashion to patients eyes in the office setting to induce a controlled allergic reaction. Drug is administered at pre-specified timepoints and signs and symptoms are collected also at pre-specified timepoints to assess efficacy.
• Composition A: 0.5% w/w Compound 1 HCl salt, 1.5% w/w glycerin, 0.01% w/w BAC in 10 mM phosphate buffer, pH 6.0. • Composition B: 1.0% w/w Compound 1 HCl salt, 1.5% w/w glycerin, 0.01% w/w BAC in 10 mM phosphate buffer, pH 6.0. • Placebo: 0.01% w/w BAC, 1.5% w/w glycerol, pH 6.0. After receiving screening and baseline CACs, patients were assigned in a masked randomization fashion to receive a study treatment at 8 hour or 15 min pre-CAC at Visits 4b and 5, respectively. […]
• Ocular Itching [Time Frame: 5, 7, and 10 minutes post allergen administration (CAC)] Ocular Itching were assessed by the subjects using a 0-4 scale (0=none to 4=severe). Average of ocular itching score over both eyes were analyzed. • Conjunctival Redness [Time Frame: 7, 15, and 20 minutes post allergen administration CAC] • Conjunctival Redness were assessed by the investigator using a 0-4 scale (0=none to 4=severe). Average of conjunctival redness score over both eyes were analyzed. • Other variables assessed for efficacy include lid swelling, chemosis, tearing, nasal symptoms, and indication of biological activity via exploratory assessment of biomarkers, and exploratory imaging of inflammation with in vivo confocal microscopy. […]

[3] = Dissolution study of HCl salt and free base in formulation buffer; format: physicochemical; conditions: for solubility (visual appearance): 10 mg/mL (1%) in pH 6, 10 mM citrate buffer, 1% PEG400, 1% Glycerin, 0.3% NaCl, 0.05% PS80
Experimental: A dissolution study was performed in which the HCl salt or the free base were added to the following formulation buffer at a concentration of 10 mg/mL (1%): • pH 6, 10 mM citrate buffer, 1% PEG400, 1% Glycerin, 0.3% NaCl, 0.05% PS80.
The pH was increased for soluble samples to better understand their properties. The appearance of the samples was visually observed for clarity or cloudiness. […] The free base was not soluble.

[4] = tested on: Mice sensitized with short ragweed allergen; test: Murine model of allergic conjunctivitis (conjunctival allergen challenge, short ragweed); format: in vivo, mouse
Experimental: Mice were sensitized with subcutaneously injected short ragweed allergen (day 1, day 11), and underwent conjunctival allergen challenge (CAC) on day 18 with short ragweed allergen. Following challenge, the mice were randomized into treatment groups (n=8) and given topical test compounds: vehicle, 0.1% Compound 1, 1% Compound 1, 1% prednisolone, or saline (BSS) twice a day for 2 days, and three times a day for an additional 4 days during allergen challenges. Challenges were conducted twice daily, on day 21 thru 24. Responses to allergen challenge were evaluated after challenges 1, 4, 6 and 8.

- solubility [1]: 1000 to 10000 µg/mL
- solubility (visual appearance) ([3]; listed as free base): not soluble
Structure (SMILES): NC(=O)c1cnc(N[C@@H]2CCCC[C@@H]2N)nc1Nc1cccc(-c2ncccn2)c1 [Compound 1, 2-((1R,2S)-2-aminocyclohexylamino)-4-(3-(pyrimidin-2-yl)phenylamino)pyrimidine-5-carboxamide]
- treatment emergent adverse events ([2]; Compound 1 groups): rated mild
- biological effect ([2]; both concentrations (0.5%, 1%)): clear and consistent biological effect
- reduction of redness, 8 hours versus 15 minutes following dosing ([2]; human, in vivo): reduced redness to a greater extent at 8 hours following dosing compared with 15 minutes
- test days with statistically significant reduction in overall mean hyperemia ([4]; 1% Compound 1): 3 of 4
- test days with significantly reduced mean change in hyperemia compared to saline ([4]; Compound 1 (0.1%), topical): 2 of 4
- test days with significantly reduced mean change in hyperemia (pre-versus post-CAC) compared to saline ([4]; Compound 1 (1%), topical): 4 of 4
- ocular discharge, lid swelling, or squinting ([4]; mouse, in vivo): No significant changes
- relief of allergic conjunctivitis ([4]; murine model): showed efficacy

- solubility (visual appearance) [3]: soluble even at a pH of 6
- behaviour as pH was increased from 6 ([3]; same formulation buffer, pH increased): precipitates formed
Structure (SMILES): NC(=O)c1cnc(N[C@@H]2CCCC[C@@H]2N)nc1Nc1cccc(-c2ncccn2)c1 [HCl salt, 2-((1R,2S)-2-aminocyclohexylamino)-4-(3-(pyrimidin-2-yl)phenylamino)pyrimidine-5-carboxamide]

Structure (SMILES): C[C@]12C=CC(=O)C=C1CC[C@@H]1[C@@H]2[C@@H](O)C[C@@]2(C)[C@H]1CC[C@]2(O)C(=O)CO [prednisolone, reference compound]
- test days with significant decrease in the mean change in hyperemia ([4]; prednisolone (1.0%), topical, positive control): 2 of 4
